Experimental data as given in patent publication US5428031A, “Methods of treating cardiac arrhythmia” (priority 1993, dated 1995).
Where two headings read alike, the source gives them in different places. One block for each compound: values may come before it.

Tests used:
IKr = details: cited from earlier work
[1] = molecular target: T1, IKr (rapidly activating delayed rectifier K+ current) (Cavia porcellus, UniProt O08703); experiment: voltage clamp measurement of IKr block in isolated guinea pig ventricular myocytes; format: cell-based
T1 construct: Guinea pig ventricular myocytes were isolated; endogenous in cells; host or cells: isolated guinea pig ventricular myocytes
T1 sequence (O08703 1-1294): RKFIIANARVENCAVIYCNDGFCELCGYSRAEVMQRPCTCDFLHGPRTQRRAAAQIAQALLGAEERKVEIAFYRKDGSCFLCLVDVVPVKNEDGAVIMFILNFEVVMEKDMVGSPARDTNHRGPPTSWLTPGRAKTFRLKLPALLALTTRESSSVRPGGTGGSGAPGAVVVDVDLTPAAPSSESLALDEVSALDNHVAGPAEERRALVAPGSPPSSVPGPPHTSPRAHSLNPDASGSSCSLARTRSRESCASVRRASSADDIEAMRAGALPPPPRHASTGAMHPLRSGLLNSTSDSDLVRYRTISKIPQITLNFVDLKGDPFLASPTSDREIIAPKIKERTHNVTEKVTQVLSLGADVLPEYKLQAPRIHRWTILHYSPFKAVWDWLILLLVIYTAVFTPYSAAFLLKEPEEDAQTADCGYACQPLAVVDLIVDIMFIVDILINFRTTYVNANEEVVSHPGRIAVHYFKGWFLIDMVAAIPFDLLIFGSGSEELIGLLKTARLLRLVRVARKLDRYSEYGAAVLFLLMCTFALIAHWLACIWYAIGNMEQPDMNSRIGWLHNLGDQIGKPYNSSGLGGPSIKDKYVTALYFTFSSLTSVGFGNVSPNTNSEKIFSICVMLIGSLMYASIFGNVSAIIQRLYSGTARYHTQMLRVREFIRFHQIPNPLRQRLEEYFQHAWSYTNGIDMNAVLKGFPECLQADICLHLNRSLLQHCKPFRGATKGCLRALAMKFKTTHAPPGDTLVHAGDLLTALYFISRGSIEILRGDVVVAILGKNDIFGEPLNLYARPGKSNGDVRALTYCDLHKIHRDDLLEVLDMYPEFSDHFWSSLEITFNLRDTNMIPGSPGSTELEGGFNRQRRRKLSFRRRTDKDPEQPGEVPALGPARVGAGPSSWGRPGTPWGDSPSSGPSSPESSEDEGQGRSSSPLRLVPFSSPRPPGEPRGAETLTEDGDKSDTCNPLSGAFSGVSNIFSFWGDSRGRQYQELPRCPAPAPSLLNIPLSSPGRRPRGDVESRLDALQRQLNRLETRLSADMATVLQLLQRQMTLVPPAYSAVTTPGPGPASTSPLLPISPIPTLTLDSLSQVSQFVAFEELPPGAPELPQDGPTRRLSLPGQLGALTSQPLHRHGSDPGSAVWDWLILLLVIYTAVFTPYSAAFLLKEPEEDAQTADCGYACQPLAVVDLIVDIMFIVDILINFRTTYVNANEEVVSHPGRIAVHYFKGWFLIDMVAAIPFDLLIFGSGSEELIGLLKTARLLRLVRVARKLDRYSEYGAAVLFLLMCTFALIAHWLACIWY
Description: (§1) Guinea pig ventricular myocytes were isolated using a modification of the procedure described by Mitra R and Morad M., "A Uniform Enzymatic Method for Dissociation of Myocytes from Hearts and Stomachs of Nertilorates", Am. J. Physiol. […] Excised hearts were perfused through the aorta (retrograde fashion) at a rate of 10 ml/min with oxygenated, warmed (37° C.) solutions described below. […] The head was then perfused with the same nominally Ca^2+ -free solution containing 150 units/ml Type II collagenase (Worthington) and 0.5 units/ml Type XIV protease (Sigma) for 8 minutes. This perfusate was followed by a Tyrode's solution containing 0.2 mM CaCl2 (without enzymes) for 5 minutes. The digested ventricles were cut into small pieces and gently shaken until cells were visibly dispersed. The cells were stored at room temperature until use, within 8 hours after isolation.
(§2) The suction microelectrode technique described by Giles, W. R. and Shibata, E. F., "Voltage clamp of bull-frog cardiac pacemaker cells: a quantitative, analysis of potassium currents". J. Physiol. […] Microelectrodes were made by using a two stage puller from square bore (1.0 mm o.d.) borosilicate capillary tubing. […] After establishing whole-cell recording mode, negative pressure was maintained on the pipette using a 1 ml gas-tight syringe attached via air tight tubing to the suction port of the microelectrode holder. This minimized dialysis of the cell with the pipette solution.
(§3) To record K^+ currents, the cells were bathed in a Ca^2+ -free Tyrode's :solution containing […] nisoldipine. […] A List EPC-7 clamp amplifier was used to voltage clamp the isolated cells. […] A variety of voltage pulse protocols were used to measure Ca^2+ current and three types of K^+ currents: inward rectifier (IK1), rapidly activating delayed rectifier (IKr) and the slowly activating delayed rectifier (IKs). Sanguinetti M. C. and Jurkiewicz, N. K., "Two components of cardiac delayed rectifier K^+ current: Differential sensitivity to block by Class III antiarrhythmic agents". […] Data was analyzed as % block from control membrane currents.
(§4) Nisoldipins was prepared as a 4 mM stock solution in polyethylne glycol 200. Compounds tested in this series were prepared as 10 mM stock solutions in polyethylene glycol 400 or dimethyl sulfoxide.

[2] = molecular target: T2, IKs (slowly activating delayed rectifier K+ current) (Cavia porcellus, UniProt O70344); experiment: cell-based; format: cell-based, guinea pig
T2 construct: Guinea pig ventricular myocytes were isolated; endogenous in cells; host or cells: isolated guinea pig ventricular myocytes
Description: Current amplitude is measured as the difference from the initial instantaneous current level following the capacitance discharge after changing the transmembrane voltage from -50 mV to +50 mV, to the current level at the end of the 1 second voltage step. Normally, an increase in the current amplitude occurs as a function of time and voltage during depolarization of the cardiac cell membrane and this increasing current has been defined as the delayed rectifier K^+ current (IK). […] IKs current occurs as a consequence of time- and voltage-dependent opening of ionic channels or pores in the cardiac cell membrane that allow the relatively selective flow of potassium ions (K^+) from the inside to the outside of the cell, that is, down the voltage and concentration gradient for K^+ ions that is inherent in cardiac cells. Thus, block of the IKs current ultimately reflects block of certain ion channels or pores in the cardiac cell membrane. However, the single pores or channels thought to underlie the IKs current have yet to be measured or identified at the single channel level.
as §1, §2, §3, §4

K+ currents = details: 0.4 mM nisoldipine; cited from earlier work
L-type Ca2+ channels = details: 0.4 mM nisoldipine; cited from earlier work
Na+ currents = details: cited from earlier work
IKs = details: cited from earlier work
thyroid function = details: cited from earlier work
phospholipase = details: cited from earlier work
Ca2+ currents = details: cited from earlier work
[3] = cited from earlier work
adrenergic = details: cited from earlier work
[4] = read-out: IC50 or % Block (μM), IKr (% block)
[5] = 1 μM, read-out: Cellular Electrophysiology (% Block), IKr
[6] = 10 μM, read-out: Cellular Electrophysiology (% Block), IKr
[7] = 1 μM, read-out: Cellular Electrophysiology (% Block), IKs
[8] = 10 μM, read-out: Cellular Electrophysiology (% Block), IKs
[9] = read-out: Cellular Electrophysiology (% Block), IKr
[10] = read-out: Cellular Electrophysiology (% Block), IKs

SMILES: CS(=O)(=O)Nc1ccc2c(c1)C(O)CC1(CCN(C3CCc4cc(C#N)ccc4C3)CC1)O2 (single isomer, unassigned)
block of IKr (IKr): predominantly, if not exclusively, block IKr

SMILES: CN1C(=O)[C@H](NC(=O)c2cc3ccccc3[nH]2)N=C(c2ccccc2)c2ccccc21 [Compound 1, 3(R)-(+)-1,3-dihydro-3-(2-indolecarbonylamino)-1-methyl-5-phenyl-2H-1,4-benzodiazepin-2-one]
inhibition at 1 µM [1, 4]: 20%

SMILES: CN1C(=O)[C@@H](NC(=O)c2cc3ccccc3[nH]2)N=C(c2ccccc2)c2ccccc21 [Compound 2, 3(S)-(-)-1,3-dihydro-3-(2-indolecarbonylamino)-1-methyl-5-phenyl-2H-1,4-benzodiazepin-2-one]
inhibition at 1 µM [1, 4]: 21%
inhibition at 1 µM ([2]; read-out: IC50 or % Block (μM), IKs (% block)): 25%

inhibition at 1 µM [2, 7]: 10%
inhibition at 10 µM [2, 8]: 30.5 ± 6.6%
IC50 ([2]; Guinea Pig Myocytes, read-out: IC50 or % Block (μM), IKs (bare number: IC50)): 57 µM
SMILES: CC(C)S(=O)(=O)NC(=O)c1cccc(NC(=O)NC2N=C(C3CCCCC3)c3ccccc3N(C)C2=O)c1 (stereo not shown) [Example 5]
inhibition at 1 µM [1, 5]: 16.1%
inhibition at 10 µM [1, 6]: 24.7 ± 13%
IC50 ([1]; Guinea Pig Myocytes, read-out: IC50 or % Block (μM), IKr (bare number: IC50)): 77 µM

SMILES: CN1C(=O)[C@H](N)N=C(c2ccccc2)c2ccccc21 [Example 7]
inhibition at 1 µM [1, 9]: 14.8 ± 6.7%
inhibition at 10 µM [1, 9]: 36.4 ± 2.9%
inhibition at 1 µM [2, 10]: 29.9 ± 6%
inhibition at 10 µM [2, 10]: 43.4 ± 10.8%

SMILES: CN1C(=O)C(NC(=O)c2cc3ccccc3[nH]2)N=C(c2ccncc2)c2ccccc21 (stereo not shown) [Example 9]
inhibition at 1 µM [1, 5]: 44.3%
inhibition at 10 µM [1, 6]: 82.4%
inhibition at 1 µM [2, 7]: 20%
inhibition at 10 µM [2, 8]: 66%

inhibition at 10 µM [2, 8]: 16 ± 11%
SMILES: Cc1cccc(NC(=O)NC2N=C(N3CCOCC3)c3ccccc3N(C)C2=O)c1 (stereo not shown) [Example 12]
inhibition at 1 µM [1, 5]: 13 ± 3.1%
inhibition at 10 µM [1, 6]: 30 ± 5.4%

SMILES: CN1C(=O)[C@H](NC(=O)C2CCC3(CC2)CCN(C(=O)OC(C)(C)C)CC3)N=C(c2ccccc2)c2ccccc21 [Example 40, (+)-N-[(3R)-2,3-Dihydro-1-methyl-2-oxo-5-phenyl-1H-1,4-benzo-diazepin-3-yl]-1'-(1,1-dimethylethoxycarbonyl)spiro(cyclohexan-4,4'-piperidine)-1-carboxamide]
IKs inhibition, purity of action ([2]; in words): not a pure IKs inhibitor

SMILES: COC(=O)C1=C(C)NC(C)=C(C(=O)OCC(C)C)C1c1ccccc1[N+](=O)[O-] (stereo not shown) [Nisoldipine]
effect on K+ currents (K+ currents): no effect on K^+ currents
block of L-type Ca2+ channels (L-type Ca2+ channels): relatively specific blocker of L-type Ca^2+ channels

SMILES: CCCCc1oc2ccccc2c1C(=O)c1cc(I)c(OCCN(CC)CC)c(I)c1 [amiodarone]
block of Na+ currents (Na+ currents): blocks Na^+ and Ca^2+ currents
block of IKs (IKs): blocker of IKs
effect on thyroid function (thyroid function): effects thyroid function
inhibition of phospholipase (phospholipase): inhbitor of the enzyme phospholipase
block of Ca2+ currents (Ca2+ currents): blocks Na^+ and Ca^2+ currents
Class III properties / selectivity [3]: interesting Class III properties
Class III properties / selectivity ([3]; listed as Amiodarone): not a selective Class III antiarrhythmic agent
adrenergic block (adrenergic): nonspecific adrenergic blocker

SMILES: CC(C)NCC(O)c1ccc(NS(C)(=O)=O)cc1 (stereo not drawn) [d-sotalol]
block of IKr (IKr): predominantly, if not exclusively, block IKr

SMILES: CN(CCOc1ccc(NS(C)(=O)=O)cc1)CCc1ccc(NS(C)(=O)=O)cc1 [dofetilide]
block of IKr (IKr): predominantly, if not exclusively, block IKr
